From PubChem BioAssay (NCI)
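Five concentrations, 48 hours, 96-well plates. TGI is the concentration that stops growth completely.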

Tests used:
Test in all cases: NCI tumour cell line growth inhibition, 48 h
A498 renal = test system: A498 renal
A549 NSCLC = test system: A549 NSCLC
CAKI-1 renal = test system: CAKI-1 renal
CCRF-CEM leukemia = test system: CCRF-CEM leukemia
COLO 205 colon = test system: COLO 205 colon
DLD-1 colon = test system: DLD-1 colon
DMS 114 small cell lung = test system: DMS 114 small cell lung
DMS 273 small cell lung = test system: DMS 273 small cell lung
EKVX NSCLC = test system: EKVX NSCLC
HCC-2998 colon = test system: HCC-2998 colon
HCT-116 colon = test system: HCT-116 colon
HCT-15 colon = test system: HCT-15 colon
HL-60(TB) leukemia = test system: HL-60(TB) leukemia
HOP-18 NSCLC = test system: HOP-18 NSCLC
HOP-62 NSCLC = test system: HOP-62 NSCLC
HOP-92 NSCLC = test system: HOP-92 NSCLC
HT29 colon = test system: HT29 colon
IGROV1 ovarian = test system: IGROV1 ovarian
K-562 leukemia = test system: K-562 leukemia
KM12 colon = test system: KM12 colon
KM20L2 colon = test system: KM20L2 colon
LOX IMVI melanoma = test system: LOX IMVI melanoma
M19-MEL melanoma = test system: M19-MEL melanoma
MALME-3M melanoma = test system: MALME-3M melanoma
MCF7 breast = test system: MCF7 breast
MOLT-4 leukemia = test system: MOLT-4 leukemia
NCI-H226 lung = test system: NCI-H226 lung
NCI-H23 lung = test system: NCI-H23 lung
NCI-H460 lung = test system: NCI-H460 lung
NCI-H522 lung = test system: NCI-H522 lung
NCI/ADR-RES ovarian = test system: NCI/ADR-RES ovarian
OVCAR-3 ovarian = test system: OVCAR-3 ovarian
OVCAR-4 ovarian = test system: OVCAR-4 ovarian
OVCAR-5 ovarian = test system: OVCAR-5 ovarian
OVCAR-8 ovarian = test system: OVCAR-8 ovarian
P388 leukemia = test system: P388 leukemia
P388/ADR leukemia = test system: P388/ADR leukemia
RPMI-8226 leukemia = test system: RPMI-8226 leukemia
RXF 393 renal = test system: RXF 393 renal
SF-268 CNS = test system: SF-268 CNS
SF-295 CNS = test system: SF-295 CNS
SF-539 CNS = test system: SF-539 CNS
SK-MEL-2 melanoma = test system: SK-MEL-2 melanoma
SK-MEL-28 melanoma = test system: SK-MEL-28 melanoma
SK-MEL-5 melanoma = test system: SK-MEL-5 melanoma
SK-OV-3 ovarian = test system: SK-OV-3 ovarian
SN12C renal = test system: SN12C renal
SN12K1 renal = test system: SN12K1 renal
SNB-19 CNS = test system: SNB-19 CNS
SNB-75 CNS = test system: SNB-75 CNS
SNB-78 CNS = test system: SNB-78 CNS
SW-620 colon = test system: SW-620 colon
U251 CNS = test system: U251 CNS
UACC-257 melanoma = test system: UACC-257 melanoma
UACC-62 melanoma = test system: UACC-62 melanoma
UO-31 renal = test system: UO-31 renal
XF 498 CNS = test system: XF 498 CNS

## CN(C)CCSc1nccc(-c2ccc(-c3ccnc(SCCN(C)C)n3)s2)n1
A498 renal
  TGI: 29.6 µM
A549 NSCLC
  TGI: 31.7 µM
CAKI-1 renal
  TGI: 33.1 µM
CCRF-CEM leukemia
  TGI: 17.4 µM
COLO 205 colon
  TGI: 21.7 µM
DLD-1 colon
  TGI: 23 µM
DMS 114 small cell lung
  TGI: 25.5 µM
DMS 273 small cell lung
  TGI: 22.8 µM
EKVX NSCLC
  TGI: 37.4 µM
HCC-2998 colon
  TGI: 18.6 µM
HCT-116 colon
  TGI: 13.1 µM
HCT-15 colon
  TGI: 17.3 µM
HL-60(TB) leukemia
  TGI: 6.01 µM
HOP-18 NSCLC
  TGI: 67.2 µM
HOP-62 NSCLC
  TGI: 30.6 µM
HOP-92 NSCLC
  TGI: 28.1 µM
HT29 colon
  TGI: 10.3 µM
IGROV1 ovarian
  TGI: 28.8 µM
K-562 leukemia
  TGI: 23.2 µM
KM12 colon
  TGI: 16 µM
KM20L2 colon
  TGI: 23.6 µM
LOX IMVI melanoma
  TGI: 11.9 µM
M19-MEL melanoma
  TGI: 26.6 µM
MALME-3M melanoma
  TGI: 24.2 µM
MCF7 breast
  TGI: 16.9 µM
MOLT-4 leukemia
  TGI: 10 µM
NCI-H226 lung
  TGI: 27.7 µM
NCI-H23 lung
  TGI: 28.3 µM
NCI-H460 lung
  TGI: 9.86 µM
NCI-H522 lung
  TGI: 33.5 µM
NCI/ADR-RES ovarian
  TGI: 19.9 µM
OVCAR-3 ovarian
  TGI: 31.2 µM
OVCAR-4 ovarian
  TGI: 16.2 µM
OVCAR-5 ovarian
  TGI: 29.4 µM
OVCAR-8 ovarian
  TGI: 31.4 µM
P388 leukemia
  TGI: 3.18 µM
P388/ADR leukemia
  TGI: 6.74 µM
RPMI-8226 leukemia
  TGI: 10.1 µM
RXF 393 renal
  TGI: 9.99 µM
SF-268 CNS
  TGI: 22 µM
SF-295 CNS
  TGI: 26 µM
SF-539 CNS
  TGI: 20.4 µM
SK-MEL-2 melanoma
  TGI: 29.5 µM
SK-MEL-28 melanoma
  TGI: 36.2 µM
SK-MEL-5 melanoma
  TGI: 31 µM
SK-OV-3 ovarian
  TGI: 47.2 µM
SN12C renal
  TGI: 21 µM
SN12K1 renal
  TGI: 24.6 µM
SNB-19 CNS
  TGI: 38.8 µM
SNB-75 CNS
  TGI: 28.2 µM
SNB-78 CNS
  TGI: 31 µM
SW-620 colon
  TGI: 18.1 µM
U251 CNS
  TGI: 26 µM
UACC-257 melanoma
  TGI: 31.1 µM
UACC-62 melanoma
  TGI: 29.7 µM
UO-31 renal
  TGI: 16.6 µM
XF 498 CNS
  TGI: 29.4 µM

## CC1[C@@H]2C[C@@H]3O[C@@]34[C@H]3CCC5Cc6nc7c(nc6C[C@@]5(C)C3(O)CC(=O)[C@@]24CO[C@]12OC(C)(C)CC2O)CC1CC[C@@H]2C3=C[C@H]4O[C@@]5(O[C@@](C)(CO)C[C@@H]5O)C(C)[C@@]4(O)[C@]3(C)[C@@H](O)CC2[C@]1(C)C7 (stereo partly specified)
A498 renal
  TGI: 0.0643 µM
A549 NSCLC
  TGI: 1.16 µM
CAKI-1 renal
  TGI: > 3.52 µM
CCRF-CEM leukemia
  TGI: 0.0413 µM
COLO 205 colon
  TGI: 0.156 µM
DLD-1 colon
  TGI: > 3.52 µM
DMS 114 small cell lung
  TGI: 1.09 µM
DMS 273 small cell lung
  TGI: 0.0177 µM
EKVX NSCLC
  TGI: 1.03 µM
HCC-2998 colon
  TGI: > 3.52 µM
HCT-116 colon
  TGI: > 3.52 µM
HCT-15 colon
  TGI: 2.66 µM
HL-60(TB) leukemia
  TGI: 0.0305 µM
HOP-18 NSCLC
  TGI: > 3.52 µM
HOP-62 NSCLC
  TGI: 0.0729 µM
HOP-92 NSCLC
  TGI: 0.976 µM
HT29 colon
  TGI: 0.0945 µM
IGROV1 ovarian
  TGI: > 3.52 µM
K-562 leukemia
  TGI: 0.666 µM
KM12 colon
  TGI: 0.893 µM
KM20L2 colon
  TGI: 0.244 µM
LOX IMVI melanoma
  TGI: > 3.52 µM
M19-MEL melanoma
  TGI: > 3.52 µM
MALME-3M melanoma
  TGI: 0.247 µM
MCF7 breast
  TGI: > 3.52 µM
NCI-H226 lung
  TGI: > 3.52 µM
NCI-H23 lung
  TGI: 0.467 µM
NCI-H460 lung
  TGI: 0.479 µM
NCI-H522 lung
  TGI: 0.653 µM
NCI/ADR-RES ovarian
  TGI: > 3.52 µM
OVCAR-3 ovarian
  TGI: > 3.52 µM
OVCAR-4 ovarian
  TGI: > 3.52 µM
OVCAR-5 ovarian
  TGI: 0.218 µM
OVCAR-8 ovarian
  TGI: > 3.52 µM
P388 leukemia
  TGI: 0.357 µM
P388/ADR leukemia
  TGI: 0.232 µM
RPMI-8226 leukemia
  TGI: > 3.52 µM
RXF 393 renal
  TGI: 0.0296 µM
SF-268 CNS
  TGI: 0.683 µM
SF-295 CNS
  TGI: 0.0164 µM
SF-539 CNS
  TGI: 0.115 µM
SK-MEL-2 melanoma
  TGI: 0.863 µM
SK-MEL-5 melanoma
  TGI: > 3.52 µM
SK-OV-3 ovarian
  TGI: 0.231 µM
SN12C renal
  TGI: > 3.52 µM
SN12K1 renal
  TGI: 0.666 µM
SNB-75 CNS
  TGI: 0.028 µM
SNB-78 CNS
  TGI: 0.622 µM
SW-620 colon
  TGI: 0.49 µM
U251 CNS
  TGI: 0.332 µM
UACC-257 melanoma
  TGI: > 3.52 µM
UACC-62 melanoma
  TGI: 0.104 µM
UO-31 renal
  TGI: 0.755 µM
XF 498 CNS
  TGI: 0.0328 µM
